The values that follow come from ChEMBL document CHEMBL6134843, “HDAC11 Inhibition as a Potential Therapeutic Strategy for AML: Target Identification, Lead Discovery, Antitumor Potency, and Mechanism Investigation” (J Med Chem, 2025).

For assay [1], the system named is OCI-AML-3. Kind of assay: Induction of cell apoptosis in human OCI-AML-3 cells at 100 uM incubated for 48 hrs by Annexin V/DAPI staining based flow cytometry analysis. The format is functional. (In general: A flow cytometer gives signals particle by particle.)
Assay [2] has as its target T1, Protein deacetylase HDAC6 (Homo sapiens, UniProt Q9UBN7).
T1 sequence (Q9UBN7 whole entry): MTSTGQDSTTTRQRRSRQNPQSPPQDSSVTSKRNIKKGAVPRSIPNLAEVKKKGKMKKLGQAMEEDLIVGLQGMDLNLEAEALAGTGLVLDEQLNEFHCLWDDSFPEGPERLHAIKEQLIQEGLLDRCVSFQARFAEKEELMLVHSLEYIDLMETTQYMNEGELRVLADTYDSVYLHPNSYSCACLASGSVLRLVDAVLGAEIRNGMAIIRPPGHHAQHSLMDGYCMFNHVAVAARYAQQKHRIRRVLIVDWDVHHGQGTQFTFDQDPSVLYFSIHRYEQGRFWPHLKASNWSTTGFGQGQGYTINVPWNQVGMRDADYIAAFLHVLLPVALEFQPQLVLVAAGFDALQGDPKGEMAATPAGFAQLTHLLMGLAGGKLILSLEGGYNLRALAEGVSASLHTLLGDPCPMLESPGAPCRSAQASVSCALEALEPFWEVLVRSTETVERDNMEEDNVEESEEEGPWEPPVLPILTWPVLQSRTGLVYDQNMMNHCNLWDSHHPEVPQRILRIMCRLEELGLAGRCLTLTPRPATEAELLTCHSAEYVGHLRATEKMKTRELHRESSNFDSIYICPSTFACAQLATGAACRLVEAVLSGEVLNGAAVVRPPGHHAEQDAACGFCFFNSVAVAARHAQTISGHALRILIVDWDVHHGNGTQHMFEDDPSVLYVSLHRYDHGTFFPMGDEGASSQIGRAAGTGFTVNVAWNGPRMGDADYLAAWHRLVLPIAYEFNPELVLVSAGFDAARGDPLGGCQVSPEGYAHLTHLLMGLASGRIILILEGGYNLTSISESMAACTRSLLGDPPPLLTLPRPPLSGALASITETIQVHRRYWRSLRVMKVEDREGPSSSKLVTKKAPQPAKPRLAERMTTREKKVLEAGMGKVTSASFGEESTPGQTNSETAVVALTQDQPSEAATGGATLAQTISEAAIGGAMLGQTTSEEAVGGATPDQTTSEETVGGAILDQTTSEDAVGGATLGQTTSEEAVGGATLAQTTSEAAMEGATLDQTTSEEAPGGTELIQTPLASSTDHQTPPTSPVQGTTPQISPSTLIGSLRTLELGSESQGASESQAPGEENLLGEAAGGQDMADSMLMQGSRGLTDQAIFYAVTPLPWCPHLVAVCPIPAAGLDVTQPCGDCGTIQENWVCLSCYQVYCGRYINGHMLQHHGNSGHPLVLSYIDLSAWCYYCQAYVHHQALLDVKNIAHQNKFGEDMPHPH
Kind of assay: Inhibition of N-terminal GST-tagged full length human recombinant HDAC6 (1 to 1215 end residues) expressed in Sf9 cells using Boc-Lys-(acetyl)-AMC as substrate preincubated with enzyme for 1 hr followed by substrate addition and measured after 30 mins by fluorescence analysis.

The target in assay [3] is Histone deacetylase 4 (Homo sapiens, UniProt P56524). Kind of assay: Inhibition of N-terminal GST-tagged C-terminal His-tagged human HDAC4 (627 to 1084 end residues) expressed in baculovirus expression system in Sf9 cells using Boc-Lys-(trifluoroacetyl)-AMC as substrate preincubated with enzyme for 1 hr followed by substrate addition and measured after 30 mins by fluorescence analysis.

Assay [4] deals with OCI-AML2. Kind of assay: Antiproliferative activity against human OCI-AML2 cells assessed as cell growth inhibition incubated for 2 days by CCK-8 assay. Particulars: OCI-AML2, 48 h. On the technique in general: Tetrazolium assays rely on reduction of a dye to a coloured formazan, in cell work by metabolically active cells.
The target in assay [5] is T2, Histone deacetylase 8 (Homo sapiens, UniProt Q9BY41).
T2 sequence (Q9BY41 whole entry): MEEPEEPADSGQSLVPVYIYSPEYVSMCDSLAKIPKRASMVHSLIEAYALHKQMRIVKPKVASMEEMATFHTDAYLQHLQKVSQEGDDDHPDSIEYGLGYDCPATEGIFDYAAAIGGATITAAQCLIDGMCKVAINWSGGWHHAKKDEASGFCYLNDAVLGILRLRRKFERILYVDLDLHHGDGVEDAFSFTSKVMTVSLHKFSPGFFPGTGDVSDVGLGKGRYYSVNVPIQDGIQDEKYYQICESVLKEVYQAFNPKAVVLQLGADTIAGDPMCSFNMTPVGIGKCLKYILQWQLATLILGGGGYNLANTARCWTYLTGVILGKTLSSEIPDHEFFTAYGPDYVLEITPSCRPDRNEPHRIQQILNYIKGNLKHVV
Kind of assay: Inhibition of C-terminal His-tagged full length human recombinant HDAC8 (1 to 377 end residues) expressed in Sf9 cells using Boc-Lys-(trifluoroacetyl)-AMC as substrate preincubated with enzyme for 1 hr followed by substrate addition and measured after 30 mins by fluorescence analysis.

The target in assay [6] is T3, Histone deacetylase 11 (Homo sapiens) (UniProt Q96DB2).
T3 sequence (whole entry): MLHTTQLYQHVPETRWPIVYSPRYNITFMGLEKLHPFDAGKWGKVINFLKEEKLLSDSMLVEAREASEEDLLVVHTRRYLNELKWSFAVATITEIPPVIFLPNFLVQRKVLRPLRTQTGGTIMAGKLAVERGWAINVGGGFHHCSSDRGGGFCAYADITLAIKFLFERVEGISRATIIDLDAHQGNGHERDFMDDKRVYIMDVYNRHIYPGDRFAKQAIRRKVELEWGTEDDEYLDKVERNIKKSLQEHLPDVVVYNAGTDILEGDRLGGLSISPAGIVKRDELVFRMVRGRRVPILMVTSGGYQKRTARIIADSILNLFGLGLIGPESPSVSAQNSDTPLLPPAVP
Kind of assay: Inhibition of HDAC11 in human U-937 cells assessed as increase in SHMT2 fatty acylation level in presence of Alk14 at 100 uM incubated for 6 hrs by Western blot analysis. The format is cell-based.

The target in assay [7] is T4, Histone deacetylase 11 (Homo sapiens, UniProt Q96DB2).
T4 sequence (Q96DB2 whole entry): T3 sequence (whole entry)
Kind of assay: Inhibition of full length human recombinant HDAC11 (1 to 347 end residues) expressed in Sf9 cells using AcetylETDKmyr-AMC as substrate preincubated with enzyme for 1 hr followed by substrate addition and measured after 30 mins by fluorescence analysis.

The test system of assay [8] is OCI-AML2. Kind of assay: Induction of ferroptosis in human OCI-AML2 cells assessed as increase in ferrous ion accumulation at 5 uM incubated for 48 hrs by RhoNox-1 staining based flow cytometry analysis. The format is functional, cell-based.
Assay [9] concerns U-937. Kind of assay: Induction of ferroptosis in human U-937 cells assessed as increase in ferrous ion accumulation at 5 uM incubated for 48 hrs by RhoNox-1 staining based flow cytometry analysis. The format is functional, cell-based.
Assay [10] concerns U-937. Kind of assay: Induction of ferroptosis in human U-937 cells assessed as increase in ferrous ion accumulation at 100 uM incubated for 48 hrs by RhoNox-1 staining based flow cytometry analysis. The format is functional, cell-based.
The test system of assay [11] is U-937. Kind of assay: Antitumor activity against human U-937 cells assessed as cell growth inhibition incubated for 2 days by CCK-8 assay. Particulars: U-937, 48 h.
In assay [12] the target is Histone deacetylase 1 (Homo sapiens, UniProt Q13547). Kind of assay: Inhibition of C-terminal 6xHis/FLAG-tagged full length human recombinant HDAC1 (1 to 482 end residues) expressed in Sf9 cells using Boc-Lys-(acetyl)-AMC as substrate preincubated with enzyme for 1 hr followed by substrate addition and measured after 30 mins by fluorescence analysis.
Assay [13] concerns U-937. Kind of assay: Induction of ferroptosis in human U-937 cells assessed as increase in lipid peroxidation accumulation at 100 uM incubated for 48 hrs by C11-BODIPY 581/591 staining based flow cytometry analysis. The format is functional, cell-based.
The test system of assay [14] is THP-1. Kind of assay: Induction of cell apoptosis in human THP-1 cells at 100 uM incubated for 48 hrs by Annexin V/DAPI staining based flow cytometry analysis. The format is functional.
In assay [15] the test system is OCI-AML2. Kind of assay: Induction of ferroptosis in human OCI-AML2 cells assessed as increase in ferrous ion accumulation at 100 uM incubated for 48 hrs by RhoNox-1 staining based flow cytometry analysis. The format is functional, cell-based.
Assay [16] can be described thus: Antitumor activity against mouse MLL-AF9 cells allografted in female C57BL/6 mouse model assessed as GFP positive leukemic cells in peripheral blood at 50 mg/kg, ip administered once daily for 32 days by FITC staining based analysis (reference value: 72.5 %). The format is functional. The settings on record: time 32 day.
The nature of assay [17]: Antitumor activity against mouse MLL-AF9 cells allografted in female C57BL/6 mouse model assessed as GFP positive leukemic cells in peripheral blood at 50 mg/kg, ip administered once daily for 26 days by FITC staining based analysis (reference value: 30.6 %). The format is functional. Particulars: time 26 day.

Broadly, the pIC50 is −log10 of the IC50, conventionally taken in molar units.

pIC50: −log10 of the molar value. Active and inactive are the calls of the source. No cut-off for these calls is given here. Where only a bound is given, the exact number is not on record here.

Sequence of Histone deacetylase 4 (P56524 whole entry): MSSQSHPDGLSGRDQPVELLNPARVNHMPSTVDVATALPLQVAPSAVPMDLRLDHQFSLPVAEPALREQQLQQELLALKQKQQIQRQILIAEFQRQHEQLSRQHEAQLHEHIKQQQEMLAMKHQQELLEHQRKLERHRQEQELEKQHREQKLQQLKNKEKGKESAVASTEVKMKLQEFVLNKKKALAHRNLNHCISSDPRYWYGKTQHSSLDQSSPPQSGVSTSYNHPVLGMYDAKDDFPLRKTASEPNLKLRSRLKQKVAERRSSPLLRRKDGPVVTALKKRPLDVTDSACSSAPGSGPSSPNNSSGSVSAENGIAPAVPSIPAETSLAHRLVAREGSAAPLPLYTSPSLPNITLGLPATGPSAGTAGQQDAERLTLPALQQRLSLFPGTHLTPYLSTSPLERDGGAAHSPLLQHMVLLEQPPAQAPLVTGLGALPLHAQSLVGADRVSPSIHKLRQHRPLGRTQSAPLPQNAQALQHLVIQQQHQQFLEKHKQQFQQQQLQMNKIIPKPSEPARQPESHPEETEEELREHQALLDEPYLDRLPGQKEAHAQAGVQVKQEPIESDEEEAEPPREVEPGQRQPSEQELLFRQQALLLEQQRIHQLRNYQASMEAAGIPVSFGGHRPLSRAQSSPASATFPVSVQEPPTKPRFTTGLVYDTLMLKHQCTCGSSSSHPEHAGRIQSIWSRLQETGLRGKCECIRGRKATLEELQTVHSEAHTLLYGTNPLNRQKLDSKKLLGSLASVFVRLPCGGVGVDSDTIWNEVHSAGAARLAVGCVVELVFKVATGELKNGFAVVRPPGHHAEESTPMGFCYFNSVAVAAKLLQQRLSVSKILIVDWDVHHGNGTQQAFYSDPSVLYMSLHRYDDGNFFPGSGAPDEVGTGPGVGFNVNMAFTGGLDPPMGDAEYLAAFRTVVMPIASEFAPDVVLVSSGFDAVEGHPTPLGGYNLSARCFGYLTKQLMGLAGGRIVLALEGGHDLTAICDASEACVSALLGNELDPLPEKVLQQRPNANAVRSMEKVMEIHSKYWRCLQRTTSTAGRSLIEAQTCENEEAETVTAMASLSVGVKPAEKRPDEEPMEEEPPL
Sequence of Histone deacetylase 1 (Q13547 whole entry): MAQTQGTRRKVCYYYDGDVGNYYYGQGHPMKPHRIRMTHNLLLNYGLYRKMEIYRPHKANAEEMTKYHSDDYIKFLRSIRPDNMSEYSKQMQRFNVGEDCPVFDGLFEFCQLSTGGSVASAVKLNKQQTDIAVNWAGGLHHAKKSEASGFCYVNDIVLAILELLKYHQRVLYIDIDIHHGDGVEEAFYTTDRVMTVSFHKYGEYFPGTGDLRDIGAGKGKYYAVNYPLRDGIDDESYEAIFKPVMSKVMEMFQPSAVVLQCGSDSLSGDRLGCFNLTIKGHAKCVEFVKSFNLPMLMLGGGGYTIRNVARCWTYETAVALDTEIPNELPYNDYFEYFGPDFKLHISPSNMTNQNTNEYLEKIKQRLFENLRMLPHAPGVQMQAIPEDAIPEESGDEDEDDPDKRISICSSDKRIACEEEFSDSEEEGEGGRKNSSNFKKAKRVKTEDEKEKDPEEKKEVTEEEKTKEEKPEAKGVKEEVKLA

Regarding `CCCCCCCCCCCCCCCCNNC(=O)c1cccs1`, the outcome in assay [1], in assay [8], in assay [9], in [10], in assay [13] and in assay [14] was Active. The result in assay [15] was Active. In addition, the pIC50 is 4.11 in assay [2]; less than 4.00 in assay [3]; approximately 3.82 in assay [4]; less than 4.00 in assay [5]; 6.43 in [7]; approximately 3.82 in assay [11]. In addition, the pIC50 in assay [12] was 4.03. Further, the inhibition entry in assay [6] is “Active”.

`Nc1ccn([C@@H]2O[C@H](CO)[C@@H](O)[C@@H]2O)c(=O)n1` [CYTARABINE]: the Activity was determined as 13.2% in assay [16] and 5.81% in assay [17].

Compound `O=C(NO)c1cccc2[nH]c(C#Cc3ccccc3)cc12` gave a pIC50 in assay [3] of less than 4.00.
